# Measured values as given in patent EP0497921B1, “METHOD FOR INHIBITING ENZYMATIC SYNTHESIS OF NUCLEIC ACIDS USING ISOPSORALENS” (ISAACS, Stephen T., priority 1989, dated 1991).
# Biological target: Taq polymerase (Thermus aquaticus, UniProt P19821)
# Experiment: Primer extension on 71-mer after random addition of compound or addition of photoproduct
# Assay type: biochemical
# Details: for extension products, irradiated samples: 71-mer irradiated 15 minutes on CE-I at 25°C with AMIP (200 µg/ml), AMDMIP (200 µg/ml) or MIP (60 µg/ml), extension 5 minutes at 55°C
# Source text: In this experiment, the ability of AMIP, AMDMIP and MIP to block replication of 71-mer is investigated by randomly adding each compound to the 71-mer. of course, addition may only be random in the sense that one or more adducts may be formed with any one strand of nucleic acid. The actual placement of the isopsoralen may be governed by preferential binding at particular sites (e.g. A:T). In addition to blockage by random adducts, photoproducts of the various isopsoralens may be providing an inhibitory effect. No attempt to separate the effects of photoproduct from the effects of covalent adducts on the 71-mer template was made in this series of experiments.
# In these experiments, the 71-mer template (10^-9 M) was primed with ^32P-SK-39 (10^-8) and extended with Taq polymerase in a total volume of 20 µl. The dNTP concentration was 200 µM. In the control samples, the 71-mer, the primer, and the dNTPs were mixed in Taq buffer in a volume of 18 µl. These samples were initially denatured at 95°C for 5 minutes, followed by equilibration at 550C for 3 minutes. Taq enzyme was then added (0.5 units) and the extension reaction was carried out for 5 minutes at 55°C. The reaction was stopped by making the solution 10 mM in EDTA. In another set of samples, the 71-mer in 10 µl was mixed with either AMIP (200 µg/ml), AMDMIP (200 µg/ml), or MIP (60 µg/ml). Half of these samples were irradiated for 15 minutes on the CE-I device at 25°C. The other half was kept in the dark as controls. These samples were then mixed with the primer and dNTPs as before, and were subjected to the same thermal profile and extension reactions as the samples that were described earlier. The results were examined by PAGE. The extended product bands were identified by autoradiography, excised and counted (data not shown).
# In this experiment, the ability of two different Phenylazide derivatives (see Table 1), photobiotin (Vector Labs) and monoazide ethidium chloride, to block replication of 71-mer was investigated by randomly adding each compound to the 71-mer. Again, addition may only be random in the sense that one or more adducts may be formed with any one strand of nucleic acid. The actual placement of these compounds may be governed by preferential binding at particular sites (e.g. A:T). In addition to blockage by random adducts, there may be inhibition by photoproducts. As in Example 23, no attempt was made to separate the impact of photoproducts from that of covalent binding of photoreactive compound on the 71-mer.
# The two compounds, photobiotin and monoazide ethidium chloride, have different spectral characteristics. To activate these compounds, two different wavelength regions were selected using a single light source (General Electric Sunlamp, Model RSM, 275 watt). The light source was positioned 10 cm above uncapped Eppendorph tubes which contained samples to be irradiated. The samples were kept on ice during irradiation. A pyrex dish was placed between the lamp and the samples.
# For samples containing photobiotin, 2.5 cm of water was added to the pyrex dish to help remove some of the infrared radiation. The samples were irradiated for 15 minutes.
# For samples containing monoazide ethidium chloride, wavelengths less than 400 nm were filtered out by using 2.5 cm of an aqueous solution of 2.9 M NaNO2. Removal of short wavelengths (i.e. wavelengths shorter than 400 nm) is necessary for the use of monoazide ethidium chloride. Irradiation of this compound with shorter wavelengths results in conversion to non-active forms (data not shown). Wavelengths below 400 nm are therefore undesirable for use with this compound.
# In this experiment, the 71-mer template (2 x 10^-9 M) in 10 µl was mixed with either no photoreactive compound, photobiotin (6 x 10^-6 M), or monoazide ethidium (1.4 x 10^-3 M). Half of each of these samples were irradiated on ice for 15 minutes with wavelengths appropriate for each specific photoreactive compound. […]
# Sequence of Taq polymerase (P19821 whole entry): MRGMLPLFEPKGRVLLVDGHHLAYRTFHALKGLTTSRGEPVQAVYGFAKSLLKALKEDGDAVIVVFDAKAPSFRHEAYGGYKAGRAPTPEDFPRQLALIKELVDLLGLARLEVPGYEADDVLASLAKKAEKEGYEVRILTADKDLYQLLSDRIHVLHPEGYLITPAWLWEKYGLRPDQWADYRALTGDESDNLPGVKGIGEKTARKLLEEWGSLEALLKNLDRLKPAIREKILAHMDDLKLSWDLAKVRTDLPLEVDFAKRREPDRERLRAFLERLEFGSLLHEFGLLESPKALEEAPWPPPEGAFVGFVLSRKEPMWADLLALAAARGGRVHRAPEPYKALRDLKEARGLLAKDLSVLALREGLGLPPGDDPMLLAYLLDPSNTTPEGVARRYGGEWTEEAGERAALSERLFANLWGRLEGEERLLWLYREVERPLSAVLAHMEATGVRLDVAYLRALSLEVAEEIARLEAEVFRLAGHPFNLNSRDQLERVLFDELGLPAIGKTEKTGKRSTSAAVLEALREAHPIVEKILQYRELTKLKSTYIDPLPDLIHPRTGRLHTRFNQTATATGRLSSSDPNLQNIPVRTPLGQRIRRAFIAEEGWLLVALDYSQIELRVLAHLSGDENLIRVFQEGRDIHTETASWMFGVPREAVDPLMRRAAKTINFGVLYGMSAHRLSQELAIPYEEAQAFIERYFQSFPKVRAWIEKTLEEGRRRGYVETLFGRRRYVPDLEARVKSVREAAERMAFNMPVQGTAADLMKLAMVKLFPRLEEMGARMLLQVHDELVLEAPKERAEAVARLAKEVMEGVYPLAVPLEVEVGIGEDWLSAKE
Molecule,"extension products, 71-mer irradiated in the presence of AMDMIP (200 µg/ml AMDMIP, CE-I device at 25°C)","extension products, irradiated samples","extension products, dark controls (unirradiated AMDMIP added to unirradiated 71-mer)",amount of full length product relative to the control samples (irradiated MIP (60 µg/ml))
"4'-Aminomethyl-4,5'-dimethylisopsoralen [AMDMIP]",no extension products at all,not extended at all,full length extension product,–
5-Aminomethylisopsoralen [AMIP],–,not extended at all,–,–
"Cc1cc2occc2c2oc(=O)ccc12 [MIP, 5-Methylisopsoralen]",–,some full length extension product and a minor truncated product,–,half
